Results as given in US9328374B2, “Selective culture medium and method for detecting carbapenem-resistant bacteria in a test sample” (Institut National de la Sante et de la Recherche Medicale …, priority 2011, dated 2016).

Tested on: K. pneumoniae
Assay: MIC of imipenem, ertapenem and meropenem
Assay type: cell-based, Klebsiella pneumoniae

For `C[C@@H](O)[C@H]1C(=O)N2C(C(=O)O)=C(SCCN=CN)C[C@H]12` [IPM, imipenem], the MIC (K. pneumoniae 1 OMA (NDM-1 + CTX-M-15 + OXA-1 + OXA-9)) was greater than 32 µg/mL, the MIC (K. pneumoniae 2 OLA (NDM-1 + OXA-1)) was 1.5 µg/mL and the MIC (K. pneumoniae 7 AFR (NDM-1 + OXA-1 + CTX-M-15 + CMY-6 + TEM-1)) was greater than 32 µg/mL. The MIC (K. pneumoniae 7AFR, NDM-1 + TEM-1 + CTX-M-15 + CMY-6 + OXA-1) was greater than 32 µg/mL, the MIC (K. pneumoniae 0227, SHV-1, non-carbapenemase producer) was 0.19 µg/mL and the MIC (K. pneumoniae 588, KPC-2 + TEM-1 + SHV-11 + OXA-9) was 24 µg/mL. For the same compound, the MIC (K. pneumoniae 1022, SHV-2a + SHV-28, non-carbapenemase producer) was 0.5 µg/mL, the MIC (K. pneumoniae 1025 (CTX-M-14 + TEM-1 + SHV-11)) was 0.12 µg/mL and the MIC (K. pneumoniae 1025, CTX-M-14 + TEM-1 + SHV-11, non-carbapenemase producer) was 0.12 µg/mL. For the same compound, the MIC (K. pneumoniae 2303, KPC-2 + SHV-11) was greater than 32 µg/mL, the MIC (K. pneumoniae 6642 GEN (NDM-1 + CTX-M-15 + OXA-1 + OXA-10)) was 1 µg/mL and the MIC (K. pneumoniae 6642 GEN, NDM-1 + CTX-M-15 + OXA-1 + OXA-10) was 1 µg/mL. For the same compound, the MIC (K. pneumoniae 6759 GEN (NDM-1 + CTX-M-15 + OXA-1 + OXA-9 + OXA-10 + CMY16)) was 12 µg/mL, the MIC (K. pneumoniae 6759 GEN, NDM-1 + CTX-M-15 + CMY-16 + OXA-1 + OXA-9 + OXA-10) was 12 µg/mL and the MIC (K. pneumoniae 7725 (SHV-1)) was 0.19 µg/mL. The MIC (K. pneumoniae 7725, SHV-1, non-carbapenemase producer) was 0.19 µg/mL, the MIC (K. pneumoniae 10112, CTX-M-15 + TEM-1 + SHV-11, non-carbapenemase producer) was 0.5 µg/mL and the MIC (K. pneumoniae 0404020, VIM-1+ SHV-5) was greater than 32 µg/mL. It also gave an MIC (K. pneumoniae 0404024, VIM-1) greater than 32 µg/mL, an MIC (K. pneumoniae 0511135, VIM-1+ SHV-12) greater than 32 µg/mL and an MIC (K. pneumoniae 648236 (SHV-2a)) of 0.25 µg/mL. The MIC (K. pneumoniae 648236, SHV-2a, non-carbapenemase producer, porin deficiency) was 0.25 µg/mL, the MIC (K. pneumoniae 0709121, IMP-1) was 1.5 µg/mL and the MIC (K. pneumoniae 0709124, IMP-1 + TEM-15) was 8 µg/mL. It also gave an MIC (K. pneumoniae 0709125, IMP-1 + TEM-1 + SHV-12) of 1.5 µg/mL, an MIC (K. pneumoniae 0709127, IMP-1 + TEM-1) of 0.5 µg/mL and an MIC (K. pneumoniae A28006, KPC-2 + TEM-1 + CTX-M-2 + SHV-11) of 16 µg/mL. For the same compound, the MIC (K. pneumoniae A33504, KPC-2 + TEM-1 + SHV-11 + CTX-M-2 + OXA-9) was greater than 32 µg/mL, the MIC (K. pneumoniae AEL, OXA-48 + CTX-M-15 + SHV-28 + OXA-1) was 0.5 µg/mL and the MIC (K. pneumoniae ALE (CTX-M-15 + SHV-1)) was 1 µg/mL. It also gave an MIC (K. pneumoniae ALE, CTX-M-15 + SHV-1, non-carbapenemase producer, porin deficiency) of 1 µg/mL, an MIC (K. pneumoniae AMS (OXA-48 + TEM-1 + CTX-M-15 + OXA-1)) of 0.5 µg/mL and an MIC (K. pneumoniae AMS, OXA-48 + TEM-1 + CTX-M-15 + OXA-1) of 0.5 µg/mL. The MIC (K. pneumoniae BAJ (OXA-48 + TEM-1 + CTX-M-15 + SHV-28)) was 0.5 µg/mL, the MIC (K. pneumoniae BAJ, OXA-48 + TEM-1 + CTX-M-15 + SHV-28) was 0.5 µg/mL and the MIC (K. pneumoniae BED (CTX-M-15 + TEM-1 + SHV-1; Table 8: SHV-11)) was 1.5 µg/mL. The MIC (K. pneumoniae BED, CTX-M-15 + TEM-1 + SHV-11, non-carbapenemase producer, porin deficiency) was 1.5 µg/mL, the MIC (K. pneumoniae BEL (OXA-48)) was 1 µg/mL and the MIC (K. pneumoniae BEL, OXA-48) was 1 µg/mL. It also gave an MIC (K. pneumoniae BEN (OXA-48 + TEM-1 + CTX-M-15 + SHV-28)) of 0.38 µg/mL, an MIC (K. pneumoniae BEN, OXA-48 + TEM-1 + CTX-M-15 + SHV-28) of 0.38 µg/mL and an MIC (K. pneumoniae BER (TEM-1 + SHV-28)) of 1 µg/mL. The MIC (K. pneumoniae BER, SHV-28 + TEM-1, non-carbapenemase producer, porin deficiency) was 1 µg/mL, the MIC (K. pneumoniae BEY (OXA-48 + CTX-M-15 + TEM-1)) was 0.38 µg/mL and the MIC (K. pneumoniae BEY, OXA-48 + TEM-1 + CTX-M-15) was 0.38 µg/mL. For the same compound, the MIC (K. pneumoniae BIC (OXA-48)) was 0.5 µg/mL, the MIC (K. pneumoniae BIC, OXA-48) was 0.5 µg/mL and the MIC (K. pneumoniae BOU, OXA-48) was 0.38 µg/mL. It also gave an MIC (K. pneumoniae CHA (OXA-48 + TEM-1)) of 0.38 µg/mL, an MIC (K. pneumoniae CHA, OXA-48 + TEM-1) of 0.38 µg/mL and an MIC (K. pneumoniae COL (KPC-2 + TEM-1 + SHV-1 + CTX-M-15)) of 4 µg/mL. It also gave an MIC (K. pneumoniae COO (CTX-M-15 + SHV28)) of 8 µg/mL, an MIC (K. pneumoniae COO, CTX-M-15 + SHV-28, non-carbapenemase producer, porin deficiency) of 8 µg/mL and an MIC (K. pneumoniae DAL (OXA-48 + CTX-M-15 + TEM-1)) of 0.38 µg/mL. For the same compound, the MIC (K. pneumoniae DAL, OXA-48 + TEM-1 + CTX-M-15) was 0.38 µg/mL, the MIC (K. pneumoniae DIA, OXA-48 + TEM-1b + CTX-M-15 + SHV-11 + OXA-1) was greater than 32 µg/mL and the MIC (K. pneumoniae DUW, OXA-48 + TEM-1 + CTX-M-15 + SHV-28) was 32 µg/mL. The MIC (K. pneumoniae EGY (OXA-48 + CTX-M-15)) was 2 µg/mL, the MIC (K. pneumoniae EGY, OXA-48 + CTX-M-15) was 2 µg/mL and the MIC (K. pneumoniae ELK (OXA-48 + TEM-1 + CTX-M-15 + SHV-11)) was 0.5 µg/mL. It also gave an MIC (K. pneumoniae ELK, OXA-48 + TEM-1 + CTX-M-15 + SHV-11) of 0.5 µg/mL, an MIC (K. pneumoniae ENN, VIM-1+ SHV-5) of 0.5 µg/mL and an MIC (K. pneumoniae FOS (CTX-M-15 + TEM-1 + SHV-11)) of 6 µg/mL. It also gave an MIC (K. pneumoniae FOS, CTX-M-15 + TEM-1 + SHV-11, non-carbapenemase producer, porin deficiency) of 6 µg/mL, an MIC (K. pneumoniae GES, KPC-2 + TEM-1 + SHV-11) of 6 µg/mL and an MIC (K. pneumoniae HOL (OXA-181 + CTX-M-15)) of 1 µg/mL. It also gave an MIC (K. pneumoniae HOL, OXA-181 + CTX-M-15) of 1 µg/mL, an MIC (K. pneumoniae HPA, OXA-48 + TEM-1 + CTX-M-15 + OXA-1) of 1.5 µg/mL and an MIC (K. pneumoniae IND (NDM-1 + OXA-1 + CTX-M-15)) of 1 µg/mL. It also gave an MIC (K. pneumoniae KAM, KPC-3 + TEM-1 + SHV-11) of 8 µg/mL, an MIC (K. pneumoniae KDH (DHA-2)) of 0.12 µg/mL and an MIC (K. pneumoniae KDH, DHA-2, non-carbapenemase producer, overexpressed AmpC) of 0.12 µg/mL. For the same compound, the MIC (K. pneumoniae KI2, NDM-1 + CTX-M-15 + OXA-1) was 1 µg/mL, the MIC (K. pneumoniae KIE, NDM-1 + SHV-38 + CMY-16 + OXA-10) was 0.75 µg/mL and the MIC (K. pneumoniae KPN (CTX-M-15)) was 0.12 µg/mL. For the same compound, the MIC (K. pneumoniae KPN, CTX-M-15, non-carbapenemase producer) was 0.12 µg/mL, the MIC (K. pneumoniae LEG (CTX-M-15 + TEM-1 + SHV-12)) was 0.75 µg/mL and the MIC (K. pneumoniae LEG, CTX-M-15 + TEM-1 + SHV-12, non-carbapenemase producer, porin deficiency) was 0.75 µg/mL. The MIC (K. pneumoniae LIB (OXA-48)) was greater than 32 µg/mL.
